Experimental data published in ChEMBL document CHEMBL4261604, “Design, synthesis and biological evaluation of novel carbamodithioates as anti-proliferative agents against human cancer cells” (Eur J Med Chem, 2018).
pIC50: −log10 of the molar value. Activity calls are given as the source filed them. No cut-off for these calls is given here.

Legend:
SMMC-7721 [1] = assay: Induction of apoptosis in human SMMC7721 cells assessed as early apoptotic cells at 4 uM after 72 hrs by Alexa Fluor 488 Annexin/propidium iodide staining-based flow cytometric analysis (reference value: 0.70%); assay type: functional
SMMC-7721 [2] = assay: Cell cycle arrest in human SMMC7721 cells assessed as accumulation at G0/G1 phase at 4 uM after 72 hrs by RNase/propidium iodide staining-based flow cytometric analysis (reference value: 67.26%); assay type: functional
SMMC-7721 [3] = assay: Cell cycle arrest in human SMMC7721 cells assessed as accumulation at G0/G1 phase at 8 uM after 72 hrs by RNase/propidium iodide staining-based flow cytometric analysis (reference value: 67.26%); assay type: functional
A-375 [4] = assay: Antiproliferative activity against human A375 cells assessed as inhibition of cell proliferation at 32 uM after 72 hrs by CCK8 assay; assay type: functional; conditions: A-375, 72 h
SMMC-7721 [5] = assay: Antiproliferative activity against human SMMC7721 cells assessed as inhibition of cell proliferation at 32 uM after 72 hrs by CCK8 assay; assay type: functional; conditions: SMMC-7721, 72 h
SMMC-7721 [6] = assay: Induction of apoptosis in human SMMC7721 cells assessed as late apoptotic cells at 4 uM after 72 hrs by Alexa Fluor 488 Annexin/propidium iodide staining-based flow cytometric analysis (reference value: 0.62%); assay type: functional
SMMC-7721 [7] = assay: Induction of apoptosis in human SMMC7721 cells assessed as early apoptotic cells at 8 uM after 72 hrs by Alexa Fluor 488 Annexin/propidium iodide staining-based flow cytometric analysis (reference value: 0.70%); assay type: functional
SMMC-7721 [8] = assay: Inhibition of colony formation in human SMMC7721 cells at 2 to 8 uM after 7 days by crystal violet staining-based assay; assay type: functional, cell-based
A-375 [9] = assay: Antiproliferative activity against human A375 cells after 72 hrs by CCK8 assay; assay type: functional, cell-based; conditions: A-375, 72 h
SMMC-7721 [10] = assay: Induction of apoptosis in human SMMC7721 cells assessed as viable cells at 4 uM after 72 hrs by Alexa Fluor 488 Annexin/propidium iodide staining-based flow cytometric analysis (reference value: 91.92%); assay type: functional; conditions: SMMC-7721, 72 h, read-out: Activity
SMMC-7721 [11] = assay: Antiproliferative activity against human SMMC7721 cells assessed as inhibition of cell proliferation at 16 uM after 72 hrs by CCK8 assay; assay type: functional; conditions: SMMC-7721, 72 h
SMMC-7721 [12] = assay: Cell cycle arrest in human SMMC7721 cells assessed as accumulation at S phase at 8 uM after 72 hrs by RNase/propidium iodide staining-based flow cytometric analysis (reference value: 7.96%); assay type: functional
SMMC-7721 [13] = assay: Cell cycle arrest in human SMMC7721 cells assessed as accumulation at G2/M phase at 8 uM after 72 hrs by RNase/propidium iodide staining-based flow cytometric analysis (reference value: 24.78%); assay type: functional
SMMC-7721 [14] = assay: Induction of apoptosis in human SMMC7721 cells assessed as necrotic cells at 8 uM after 72 hrs by Alexa Fluor 488 Annexin/propidium iodide staining-based flow cytometric analysis (reference value: […]); assay type: functional
HCT-116 = assay: cells; conditions: Homo sapiens, HCT-116, 72 h
Description: Antiproliferative activity against human HCT116 cells after 72 hrs by CCK8 assay

[15] = Drug degradation in methanol after 10 hrs at 50 degC by HPLC analysis; assay type: physicochemical; conditions: read-out: Drug degradation
A-375 [16] = assay: Antiproliferative activity against human A375 cells assessed as inhibition of cell proliferation at 16 uM after 72 hrs by CCK8 assay; assay type: functional; conditions: A-375, 72 h
SMMC-7721 [17] = assay: Antiproliferative activity against human SMMC7721 cells after 72 hrs by CCK8 assay; assay type: functional, cell-based; conditions: SMMC-7721, 72 h
A549 = assay: cells; conditions: Homo sapiens, A549, 72 h
Description: Antiproliferative activity against human A549 cells after 72 hrs by CCK8 assay

HeLa = assay: Antiproliferative activity against human HeLa cells after 72 hrs by CCK8 assay; assay type: functional, cell-based
SMMC-7721 [18] = assay: Cell cycle arrest in human SMMC7721 cells assessed as accumulation at G2/M phase at 4 uM after 72 hrs by RNase/propidium iodide staining-based flow cytometric analysis (reference value: 24.78%); assay type: functional
SMMC-7721 [19] = assay: Induction of apoptosis in human SMMC7721 cells assessed as viable cells at 8 uM after 72 hrs by Alexa Fluor 488 Annexin/propidium iodide staining-based flow cytometric analysis (reference value: 91.92%); assay type: functional; conditions: SMMC-7721, 72 h, read-out: Activity
SMMC-7721 [20] = assay: Induction of apoptosis in human SMMC7721 cells assessed as late apoptotic cells at 8 uM after 72 hrs by Alexa Fluor 488 Annexin/propidium iodide staining-based flow cytometric analysis (reference value: 0.62%); assay type: functional
SMMC-7721 [21] = assay: Cell cycle arrest in human SMMC7721 cells assessed as accumulation at S phase at 4 uM after 72 hrs by RNase/propidium iodide staining-based flow cytometric analysis (reference value: 7.96%); assay type: functional
SMMC-7721 [22] = assay: Induction of apoptosis in human SMMC7721 cells assessed as necrotic cells at 4 uM after 72 hrs by Alexa Fluor 488 Annexin/propidium iodide staining-based flow cytometric analysis (reference value: […]); assay type: functional
[23] = Stability of the compound in methanol:water (1:1) up to 12 hrs by HPLC analysis; assay type: physicochemical
[24] = Stability of the compound in acetonitrile up to 12 hrs by HPLC analysis; assay type: physicochemical

C[S+]([O-])CCCCN=C=S (stereo unspecified) [SULFORAPHANE]
Activity (SMMC-7721 [1]): 4.66% | Activity (SMMC-7721 [2]): 68.06% | Activity (SMMC-7721 [3]): 66.19% | inhibition at 32 µM (A-375 [4]): 77.3% | inhibition at 32 µM (SMMC-7721 [5]): 88.3% | Activity (SMMC-7721 [6]): 2.82% | Activity (SMMC-7721 [7]): 14.43% | inhibition (SMMC-7721 [8]): Active | pIC50 (A-375 [9]): 4.61 | viability at 4 µM (SMMC-7721 [10]): 88.4% | inhibition at 16 µM (SMMC-7721 [11]): 80.5% | Activity (SMMC-7721 [12]): 5.46% | Activity (SMMC-7721 [13]): 28.35% | Activity (SMMC-7721 [14]): 9.59% | pIC50 (HCT-116): 4.43 | degraded at 10 h [15]: 60% | inhibition at 16 µM (A-375 [16]): 54% | pIC50 (SMMC-7721 [17]): 5.10 | pIC50 (A549): 4.92 | pIC50 (HeLa): 4.18 | Activity (SMMC-7721 [18]): 26.8% | viability at 8 µM (SMMC-7721 [19]): 66.9% | Activity (SMMC-7721 [20]): 9.09% | Activity (SMMC-7721 [21]): 5.41% | Activity (SMMC-7721 [22]): 4.14%

COc1ccc(SC(=S)NCCCC[S+](C)[O-])cc1 (stereo unspecified)
degraded at 10 h [15]: < 6% | Stability [23]: Unstable | Stability [24]: Unstable

COc1ccc(SC(=S)NCC/C=C/[S+](C)[O-])cc1 (stereo unspecified)
degraded at 10 h [15]: 25% | Stability [23]: Unstable | Stability [24]: Unstable

CC(=O)NCCSC(=S)NCC/C=C/[S+](C)[O-] (stereo unspecified)
Stability [23]: Stable | Stability [24]: Stable

CC(=O)NCCSC(=S)NCCCC[S+](C)[O-] (stereo unspecified)
Stability [23]: Stable | Stability [24]: Stable

C[S+]([O-])/C=C/CCN=C=S (stereo unspecified)
degraded at 10 h [15]: 60%
